Results: patent publication US6900220B2, “Quinazolone derivatives as alpha 1A/B adrenergic receptor antagonists” (Syntex (U.S.A.) LLC, priority 2001, dated 2005)
Structures can show the parent of a compound that is named as a salt.

Test system: not given
Assay: not given
Details: not given

| melting point [°C] | SMILES |
| --- | --- |
| 227.9 to 229.6 | COc1cc2nc(N3CCc4c(CN5CCOCC5)cccc4C3)[nH]c(=O)c2cc1OC (as salt: hydrochloric acid salt) [Compound 701, 6,7-Dimethoxy-2-(5-morpholin-4-ylmethyl-3,4-dihydro-1H-isoquinolin-2-yl)-3H-quinazolin-4-one] |
| 249 to 251 | COc1cc2nc(N3CCc4c(cccc4C(=N)N4CCOCC4)C3)[nH]c(=O)c2cc1OC (as salt: hydrochloric acid salt) [Compound 901, 2-[5-(imino-morpholin-4-yl-methyl)-3,4-dihydro-1H-isoquinolin-2-yl]-6,7-dimethoxy-3H-quinazolin-4-one] |
| > 300 | COc1cc2nc(N3CCc4c(cccc4-c4cnccc4N)C3)[nH]c(=O)c2cc1OC (as salt: hydrochloric acid salt) [Compound 902, 2-[5-(4-amino-pyridin-3-yl)-3,4-dihydro-1H-isoquinolin-2-yl]-6,7-dimethoxy-3H-quinazol-4-one] |
| 188.6 to 190.4 | COc1cc2c(cc1OC)CN(c1nc(=O)c3cc(OC)c(OC)cc3[nH]1)CC2 [Compound 105, 2-(6,7-dimethoxy-3,4-dihydro-1H-isoquinolin-2-yl)-6,7-dimethoxy-1H-quinazolin-4-one] |
| 287.7 to 290.4 | COc1cc2nc(N3CCc4c(ncnc4N4CCOCC4)C3)[nH]c(=O)c2cc1OC [Compound 201, 6,7-dimethoxy-2-(4-morpholin-4-yl-5,8-dihydro-6H-pyrido[3,4-d]pyrimidin-7-yl)-3H-quinazolin-4-one] |
| 248 to 249.4 | COc1cc2nc(N3CCn4c(cnc4NC4CCCCC4)C3)[nH]c(=O)c2cc1OC [Compound 301, 2-(3-cyclohexylamino-5,6-dihydro-8H-imidazo[1,5-a]pyrazin-7-yl)-6,7-dimethoxy-1H-quinazolin-4-one] |
| 230 to 237 | COc1cc2nc(N3CCc4c(cccc4S(=O)(=O)N4CCN(C)CC4)C3)[nH]c(=O)c2cc1OC [Compound 401, 6,7-dimethoxy-2-[5-(4-methyl-piperazine-1-sulfonyl)-3,4-dihydro-1H-isoquinolin-2-yl]-3H-quinazolin-4-one] |
| > 300 | COc1cc2[nH]c(N3CCn4c(-c5ccccc5)cnc4C3)nc(=O)c2cc1OC [Compound 904, 6,7-dimethoxy-2-(3-phenyl-5,6-dihydro-8H-imidazo[1,2-α]pyrazin-7-yl)-1H-quinazolin-4-one] |

Test system: anesthetized dog
Assay: Dog in vivo blood and intraurethral pressure assay
Details: anesthetized mongrel dogs, i.v. bolus, increasing doses
Procedure: The following describes an in vivo assay for measuring the relative effect of test compounds on hypogastric nerve stimulation-induced increases in intraurethral pressure and phenylephrine-induced increases in diastolic blood pressure in anesthetized dog.
Mongrel dogs (10 to 20 kg) were fasted for 12 to 18 hours and anesthetized with […] (35 mg/kg, i.v.). An endotracheal tube was inserted and thereafter the lungs were mechanically ventilated with room air. The right femoral vein was isolated and cannulated with two polyethylene cannulae, one for the administration of a continuous infusion of phenobarbital sodium (5 to 10 mg/kg/hr) and the other for bolus administration of test substances. The right femoral artery was isolated and cannulated to the abdominal aorta with a fluid filled polyethylene cannula connected to an external pressure transducer for monitoring diastolic aortic pressure (DAP). The bladder was exposed via a ventral midline abdominal incision and emptied of urine through a 22 gauge needle. The bladder was cannulated through a stab incision with a water filled balloon catheter connected to an external pressure transducer for monitoring prostatic intraurethral pressure (IUP). The right hypogastric nerve (HGN) was carefully isolated and attached to a Dastre's electrode for nerve stimulation. […]

| SMILES | inhibition of hypogastric nerve (HGN) stimulation-induced increases in intraurethral pressure (IUP) relative to phenylephrine-induced increases in diastolic aortic pressure (DAP) |
| --- | --- |
| COc1cc2nc(N3CCN(C(=O)c4ccco4)CC3)nc(N)c2cc1OC [prazosin] | inhibited increases in IUP and DAP in similar fashion |
